# Source: patent US8642541B2 (priority 2008, dated 2014)
# “Also recorded” adds a separate entry of the source.
# Legend:
# [1] = biological target: T1, human Glucagon-R (Homo sapiens, UniProt P47871); experiment: Glucagon receptor efficacy assay (cAMP, HEK293 cells); type: cell-based; settings: read-out: GLUR EC50
# T1 construct: expressed in transfected cells
# Method: The 5′-end primers additionally encoded a near Kozak consensus sequence to ensure efficient translation.
# 48 hr after transfection cells were seeded for limited dilution cloning and selected with 1 mg/ml G418 in the culture medium.
# On the day of analysis, growth medium was removed and the cells washed once with 200 μl Tyrode buffer. Cells were incubated in 100 μl Tyrode buffer containing increasing concentrations of test peptides, 100 μM IBMX, and 6 mM glucose for 15 min at 37° C. The reaction was stopped by addition of 25 μl 0.5 M HCl and incubated on ice for 60 min. The cAMP content was estimated using the FlashPlate® cAMP kit from Perkin-Elmer.
# [2] = 28 day treatment of DIO mice: plasma cholesterol, HDL and LDL; type: in vivo; settings: 4 weeks b.i.d., compared to vehicle
# Method: Four weeks before drug treatments, C57Bl/6 male mice (7 weeks) (10-12 animals in each group) were put on high fat diet (HFD) and their day-night cycle reversed with lights On/Off at 2000/0800 hour. Experimental animals were conditioned to treatment by daily injections (s.c.) of 0.1 ml vehicle and acclimatized to handling by weighing them twice a week one week before start of drug administrations. […] A non-obese control group maintained on regular chow was treated with vehicle in the same treatment regime as the DIO groups. Body weights were recorded daily and used to administer the body weight-corrected doses of peptide throughout the study. Animals were fasted overnight before sacrifice. An eye blood sample (0.6 ml EDTA) was obtained the following morning immediately before cervical dislocation. Blood plasma samples were stored at −80° C. until analyzed for cholesterol, HDL and LDL using commercially available kits. Body weight gains throughout the treatment period were calculated for each animal by subtracting its weight at the initiation of treatment.
# Statistical analyses of data on body weight gain and cholesterols among treatments by 2-way ANOVA with repeated measures and Bonferoni post-hoc analyses were performed with GraphPad Prism version 4. Differences were considered significant at the p<0.05 level.
# [3] = Oral glucose tolerance test (OGTT) in db/db mice; type: in vivo; settings: 45 nmol/kg i.p.
# Method: The animals were kept fasted during the experiment to prevent confounding food intake. Fifteen minutes later an oral dose of glucose (1 g/kg in 5 ml/kg) was given and BG levels were measured at t=30 min, t=60 min, t=120 min and t=240 min.
# Difference from baseline (t=0) was calculated for each time point and AUC0-240 min values were determined. Statistical analyses of AUC values by one-way ANOVA and Dunnetts post-hoc analyses were performed with GraphPad Prism version 4. Differences were considered significant at the p<0.05 level.
# [4] = 28 day treatment of diet induced obese (DIO) mice: body weight gain; type: in vivo
# Method: Four weeks before drug treatments, C57Bl/6 male mice (7 weeks) (10-12 animals in each group) were put on high fat diet (HFD) and their day-night cycle reversed with lights On/Off at 2000/0800 hour. Experimental animals were conditioned to treatment by daily injections (s.c.) of 0.1 ml vehicle and acclimatized to handling by weighing them twice a week one week before start of drug administrations. The day before start of experiment, mice were stratified into groups with similar body weight (BW) and the next day groups of stratified mice were treated (b.i.d.; s.c.) with ZP2653 (SEQ ID NO: 4) (500 nmol/kg)), or vehicle (PBS, pH 7.4, 2.5 μl/g BW). A non-obese control group maintained on regular chow was treated with vehicle in the same treatment regime as the DIO groups. Body weights were recorded daily and used to administer the body weight-corrected doses of peptide throughout the study. Animals were fasted overnight before sacrifice. An eye blood sample (0.6 ml EDTA) was obtained the following morning immediately before cervical dislocation. Blood plasma samples were stored at −80° C. until analyzed for cholesterol, HDL and LDL using commercially available kits. Body weight gains throughout the treatment period were calculated for each animal by subtracting its weight at the initiation of treatment. […]
# [5] = system: primary rat adipocyte cultures; type: cell-based
# Method: Adipocytes were isolated from epididymal fat dissected from normal young adult Sprague-Dawley rats. The fat lumps were minced, incubated and shaken (220 rpm) with collagenase (1 mg/ml) in Krebs-Ringer buffer containing 4% BSA (KRB-BSA) for 60 minutes at 37° C. The suspension was filtered through a nylon filter (160 μm pore size) and the filtrate centrifuged at 200×g for 3 min. The subjacent medium beneath the upper floating layer of adipocytes was removed with a Pasteur-pipette. The adipocytes were washed 3 times in KRB-BSA buffer by re-suspension and centrifugation. The adipocytes were re-suspended in KRB-BSA, mixed, incubated in and shaken with test compounds in 96-deep well plates (50,000 cells/well) in a total volume of 1 ml at 37° C. for 60 min. The plates were placed on ice for at least 10 min after incubation followed by centrifugation at 200×g for 3 min. 300 μl of the buffer beneath the adipocyte layer were collected in a 96-deep well plate. This process was repeated two more times and the 3 extracts collected from each culture pooled together. The glycerol formed by the lipolysis in the adipocyte cultures was measured by adding free glycerol reagent (200 μl) to aliquots (25 μl) of adipocyte extract, incubate at room temperature for 15 min, and measure the absorbance at 540 nm.
# T1 sequence (P47871 26-477): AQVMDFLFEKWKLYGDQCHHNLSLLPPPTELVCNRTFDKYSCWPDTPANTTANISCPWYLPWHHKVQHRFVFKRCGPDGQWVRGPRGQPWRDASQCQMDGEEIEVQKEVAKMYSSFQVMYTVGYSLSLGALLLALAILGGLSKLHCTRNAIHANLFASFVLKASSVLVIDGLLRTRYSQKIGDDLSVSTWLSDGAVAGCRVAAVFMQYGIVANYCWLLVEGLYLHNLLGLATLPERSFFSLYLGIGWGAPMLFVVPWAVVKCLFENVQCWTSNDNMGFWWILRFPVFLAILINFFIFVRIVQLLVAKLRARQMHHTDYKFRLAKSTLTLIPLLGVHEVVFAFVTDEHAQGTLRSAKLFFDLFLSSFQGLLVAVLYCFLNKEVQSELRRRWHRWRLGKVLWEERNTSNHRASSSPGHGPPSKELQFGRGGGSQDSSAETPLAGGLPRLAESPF
Substance,EC50 [1] [nM],effect on HDL/LDL ratios [2],effect on concentrations of LDL cholesterol [2],improvement of glucose tolerance (decrease in Area Under the curve (AUC)) ([3]; AUC0-240 min) [%],effect on oral glucose tolerance ([3]; OGTT),"effect on body weight gain ([4]; DIO mice on HFD, 500 nmol/kg b.i.d. s.c., 28 days, versus vehicle)","effect on fat deposition ([4]; DIO mice, 4 weeks treatment)",EC50 [5] [nM],lipolysis potency relative to OXM ([5]; primary adipocyte cultures) [times],lipolysis potency relative to glucagon ([5]; primary adipocyte cultures)
H-HSQGTFTSDYSLYLDSRRAKDFIEWLERA-NH2 [Compound L006-0050],0.1,–,–,–,–,–,–,–,–,–
H-HSQGTFTSDYSLYLDSRRAKDFIEWLESA-NH2 [ZP2653],–,significant,significant effect,39.5,significantly improved glucose tolerance,decreased body weight gain to a level similar to that observed with chow feeding; also recorded: decreased body weight gain significantly,significantly decreased fat deposition,3.6,50,equipotent to glucagon
